Legend:
lipoamide = compound: NC(=O)CCCCC1CCSS1 [lipoamide]; assay: thermal stability z-score vs DMSO; higher = more thermally stabilized by treatment; details: HeLa, lipoamide concentration 100 µM
Procedure: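 Cellular thermal proteome profiling in HeLa cells. Cells were treated with 100 µM lipoamide for 1 h, with or without 1 mM arsenate for a further 1 h, then heated to ten temperatures (37-66.3 °C), and soluble protein was quantified by TMT mass spectrometry relative to 0.1% DMSO controls. The thermal stability score (sum of log2 fold changes minus the abundance score) was transformed to a z-score; mean of n = 3 experiments.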

potassium arsenate = compound: O=[As]([O-])(O)O.[K+] [potassium arsenate]; assay: as above; details: HeLa; arsenate concentration 1 mM
Procedure: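 Cellular thermal proteome profiling in HeLa cells treated with 1 mM arsenate for 1 h (DMSO pretreatment), heated to ten temperatures (37-66.3 °C). Soluble protein was quantified by TMT mass spectrometry relative to DMSO controls; the thermal stability score was transformed to a z-score; mean of n = 3 experiments.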

[1] = arsenate co-treatment: 1 mM arsenate 1 h
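Further: each temperature applied for 3 min, abundance score taken as mean log2 fold change at the two lowest temperatures, z-score obtained by mean subtraction and division by SD.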

Chain of UniProt P55060 (P55060 whole entry): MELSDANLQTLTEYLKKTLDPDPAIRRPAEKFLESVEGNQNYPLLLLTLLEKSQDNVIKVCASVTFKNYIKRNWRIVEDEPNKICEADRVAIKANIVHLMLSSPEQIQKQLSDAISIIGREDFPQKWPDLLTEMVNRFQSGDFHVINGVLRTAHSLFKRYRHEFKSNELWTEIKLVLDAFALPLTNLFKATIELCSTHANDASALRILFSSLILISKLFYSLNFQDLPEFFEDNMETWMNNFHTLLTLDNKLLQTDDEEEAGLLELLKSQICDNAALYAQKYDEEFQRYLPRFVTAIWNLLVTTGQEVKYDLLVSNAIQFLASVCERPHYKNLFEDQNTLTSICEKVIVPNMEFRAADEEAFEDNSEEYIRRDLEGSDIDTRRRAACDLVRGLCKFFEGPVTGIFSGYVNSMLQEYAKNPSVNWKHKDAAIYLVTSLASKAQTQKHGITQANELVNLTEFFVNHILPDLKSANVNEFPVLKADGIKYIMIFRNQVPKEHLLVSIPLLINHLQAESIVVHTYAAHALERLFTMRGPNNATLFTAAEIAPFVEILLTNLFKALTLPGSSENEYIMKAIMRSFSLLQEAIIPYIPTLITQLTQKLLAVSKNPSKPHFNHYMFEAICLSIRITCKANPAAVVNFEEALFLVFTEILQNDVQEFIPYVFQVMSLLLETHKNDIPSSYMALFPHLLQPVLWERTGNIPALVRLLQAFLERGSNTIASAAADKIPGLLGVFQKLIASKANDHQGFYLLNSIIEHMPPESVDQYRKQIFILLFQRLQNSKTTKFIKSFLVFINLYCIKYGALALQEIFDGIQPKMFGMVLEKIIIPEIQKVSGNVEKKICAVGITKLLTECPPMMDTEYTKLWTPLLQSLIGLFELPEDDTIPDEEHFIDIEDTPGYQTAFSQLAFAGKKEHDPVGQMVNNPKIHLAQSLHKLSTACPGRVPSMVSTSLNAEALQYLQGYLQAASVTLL
Chain of UniProt P24534 (P24534 whole entry): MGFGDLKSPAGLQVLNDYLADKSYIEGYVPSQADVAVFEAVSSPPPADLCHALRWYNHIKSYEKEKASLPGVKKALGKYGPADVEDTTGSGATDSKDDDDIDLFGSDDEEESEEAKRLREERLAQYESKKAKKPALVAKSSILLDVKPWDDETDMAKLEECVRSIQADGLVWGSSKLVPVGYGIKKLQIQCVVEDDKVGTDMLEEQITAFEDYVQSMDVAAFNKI
Chain of UniProt Q9HD34 (Q9HD34 whole entry): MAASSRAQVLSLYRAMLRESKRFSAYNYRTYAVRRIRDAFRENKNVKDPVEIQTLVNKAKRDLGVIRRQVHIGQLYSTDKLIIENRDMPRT
Chain of UniProt Q9BZF1 (Q9BZF1 whole entry): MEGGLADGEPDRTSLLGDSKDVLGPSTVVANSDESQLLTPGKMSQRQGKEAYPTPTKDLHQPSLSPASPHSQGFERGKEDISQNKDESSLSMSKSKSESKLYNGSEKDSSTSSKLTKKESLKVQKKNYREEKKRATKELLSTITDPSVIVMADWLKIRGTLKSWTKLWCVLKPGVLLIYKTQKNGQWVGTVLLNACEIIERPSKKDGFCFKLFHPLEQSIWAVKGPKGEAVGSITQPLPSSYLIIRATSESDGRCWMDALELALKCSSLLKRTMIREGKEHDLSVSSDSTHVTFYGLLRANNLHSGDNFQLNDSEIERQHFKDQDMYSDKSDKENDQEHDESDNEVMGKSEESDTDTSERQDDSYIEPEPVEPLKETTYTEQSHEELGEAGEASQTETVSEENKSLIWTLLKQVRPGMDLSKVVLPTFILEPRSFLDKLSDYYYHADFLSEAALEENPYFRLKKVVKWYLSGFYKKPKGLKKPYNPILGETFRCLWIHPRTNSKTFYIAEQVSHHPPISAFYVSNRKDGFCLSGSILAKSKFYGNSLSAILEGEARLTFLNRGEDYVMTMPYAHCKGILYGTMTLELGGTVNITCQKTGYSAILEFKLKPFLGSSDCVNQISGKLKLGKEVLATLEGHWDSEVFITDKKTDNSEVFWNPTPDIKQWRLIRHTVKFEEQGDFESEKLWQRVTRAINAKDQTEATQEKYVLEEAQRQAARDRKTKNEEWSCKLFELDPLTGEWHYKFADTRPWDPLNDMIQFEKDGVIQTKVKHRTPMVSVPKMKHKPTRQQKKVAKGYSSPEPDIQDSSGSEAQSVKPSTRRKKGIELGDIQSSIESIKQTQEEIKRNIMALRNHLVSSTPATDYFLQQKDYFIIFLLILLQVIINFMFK
Chain of UniProt Q9BV20 (Q9BV20 whole entry): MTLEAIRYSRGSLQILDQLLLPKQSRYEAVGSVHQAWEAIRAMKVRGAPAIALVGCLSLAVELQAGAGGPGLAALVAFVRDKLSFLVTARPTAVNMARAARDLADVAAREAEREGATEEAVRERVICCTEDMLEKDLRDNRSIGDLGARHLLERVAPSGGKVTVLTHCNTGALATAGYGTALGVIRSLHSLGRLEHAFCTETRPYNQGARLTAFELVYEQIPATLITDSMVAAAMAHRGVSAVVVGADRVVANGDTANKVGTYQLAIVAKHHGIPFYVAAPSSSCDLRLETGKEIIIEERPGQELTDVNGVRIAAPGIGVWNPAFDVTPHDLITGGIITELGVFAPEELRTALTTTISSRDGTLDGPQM
Chain of UniProt P04049 (P04049 whole entry): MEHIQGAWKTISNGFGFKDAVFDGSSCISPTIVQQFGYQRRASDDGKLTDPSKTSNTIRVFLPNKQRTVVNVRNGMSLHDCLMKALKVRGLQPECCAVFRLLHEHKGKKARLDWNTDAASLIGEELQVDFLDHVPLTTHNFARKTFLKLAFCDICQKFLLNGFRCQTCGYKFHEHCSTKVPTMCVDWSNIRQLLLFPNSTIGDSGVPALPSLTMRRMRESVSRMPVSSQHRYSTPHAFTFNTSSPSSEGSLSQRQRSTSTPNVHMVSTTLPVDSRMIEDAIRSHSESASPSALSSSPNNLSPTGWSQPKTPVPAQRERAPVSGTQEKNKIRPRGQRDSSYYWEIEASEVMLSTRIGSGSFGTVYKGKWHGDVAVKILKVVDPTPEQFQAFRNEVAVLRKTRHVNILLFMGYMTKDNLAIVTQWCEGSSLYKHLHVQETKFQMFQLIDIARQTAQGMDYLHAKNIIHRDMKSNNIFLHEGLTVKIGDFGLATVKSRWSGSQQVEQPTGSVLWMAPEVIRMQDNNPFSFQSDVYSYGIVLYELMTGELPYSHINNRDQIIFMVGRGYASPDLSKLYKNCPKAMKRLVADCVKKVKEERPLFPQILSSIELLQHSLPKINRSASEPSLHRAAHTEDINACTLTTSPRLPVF
Chain of UniProt Q8IVS2 (Q8IVS2 whole entry): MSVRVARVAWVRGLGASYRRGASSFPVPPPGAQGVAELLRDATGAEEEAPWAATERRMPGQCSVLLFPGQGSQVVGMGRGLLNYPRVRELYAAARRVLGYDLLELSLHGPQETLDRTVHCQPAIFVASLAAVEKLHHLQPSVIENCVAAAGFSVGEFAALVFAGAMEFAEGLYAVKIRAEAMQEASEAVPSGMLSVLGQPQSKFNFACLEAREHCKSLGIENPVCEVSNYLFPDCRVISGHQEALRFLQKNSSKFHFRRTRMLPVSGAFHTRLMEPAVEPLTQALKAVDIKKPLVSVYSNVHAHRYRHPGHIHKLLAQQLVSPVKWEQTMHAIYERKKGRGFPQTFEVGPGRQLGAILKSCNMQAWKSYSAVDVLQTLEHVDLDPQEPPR
Chain of UniProt Q9Y597 (Q9Y597 whole entry): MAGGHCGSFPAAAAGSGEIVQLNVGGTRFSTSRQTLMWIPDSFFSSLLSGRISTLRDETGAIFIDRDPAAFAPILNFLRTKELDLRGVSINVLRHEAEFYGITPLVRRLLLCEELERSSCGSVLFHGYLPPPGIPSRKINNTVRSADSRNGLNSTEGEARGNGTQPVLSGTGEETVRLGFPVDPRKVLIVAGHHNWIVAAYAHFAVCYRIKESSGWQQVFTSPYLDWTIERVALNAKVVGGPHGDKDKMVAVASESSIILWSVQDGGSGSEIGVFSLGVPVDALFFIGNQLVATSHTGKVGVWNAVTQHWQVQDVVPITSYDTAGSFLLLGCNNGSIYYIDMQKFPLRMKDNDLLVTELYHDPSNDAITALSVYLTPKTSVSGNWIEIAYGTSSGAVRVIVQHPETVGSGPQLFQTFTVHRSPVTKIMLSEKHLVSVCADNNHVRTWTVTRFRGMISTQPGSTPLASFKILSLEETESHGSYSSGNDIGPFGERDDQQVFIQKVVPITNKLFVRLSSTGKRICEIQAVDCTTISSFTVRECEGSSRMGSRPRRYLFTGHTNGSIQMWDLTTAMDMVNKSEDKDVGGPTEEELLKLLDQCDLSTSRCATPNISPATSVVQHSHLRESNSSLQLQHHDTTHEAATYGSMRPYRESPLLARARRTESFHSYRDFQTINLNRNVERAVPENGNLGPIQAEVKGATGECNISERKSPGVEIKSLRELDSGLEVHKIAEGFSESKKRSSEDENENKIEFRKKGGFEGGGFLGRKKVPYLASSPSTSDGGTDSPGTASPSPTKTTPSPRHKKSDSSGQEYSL
Chain of UniProt Q96S99 (Q96S99 whole entry): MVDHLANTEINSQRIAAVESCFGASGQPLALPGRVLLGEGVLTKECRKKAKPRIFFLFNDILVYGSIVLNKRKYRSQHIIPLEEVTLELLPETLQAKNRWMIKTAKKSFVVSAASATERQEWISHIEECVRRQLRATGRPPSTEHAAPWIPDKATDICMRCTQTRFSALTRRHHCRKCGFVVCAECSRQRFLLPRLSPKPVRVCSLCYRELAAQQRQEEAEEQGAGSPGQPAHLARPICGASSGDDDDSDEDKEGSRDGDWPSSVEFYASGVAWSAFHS
Chain of UniProt Q9Y5N6 (Q9Y5N6 whole entry): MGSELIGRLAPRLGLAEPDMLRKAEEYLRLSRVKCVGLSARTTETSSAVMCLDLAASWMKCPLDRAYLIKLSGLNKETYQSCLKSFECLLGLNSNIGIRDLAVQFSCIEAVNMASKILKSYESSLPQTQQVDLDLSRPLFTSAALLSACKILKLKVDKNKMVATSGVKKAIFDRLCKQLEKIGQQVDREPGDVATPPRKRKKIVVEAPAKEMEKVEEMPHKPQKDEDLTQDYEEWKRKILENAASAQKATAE

Target	thermal stability z-score (lipoamide; [1])	thermal stability z-score (lipoamide; arsenate co-treatment: none)	thermal stability z-score (potassium arsenate)
TRAPPC3 (UniProt O43617)	0.589	-0.0881	0.422
MRPS23 (UniProt Q9Y3D9)	-0.268	0.352	0.342
HCFC1 (UniProt P51610)	1.26	1.15	-0.101
CCDC88A (UniProt Q3V6T2)	1.49	0.586	1.3
ZBTB33 (UniProt Q86T24)	-0.0938	-0.0683	-0.107
PNISR (UniProt Q8TF01)	1.06	0.149	-0.509
PLEKHF1 (UniProt Q96S99)	-0.218	-0.0271	-0.0692
EAPP (UniProt Q56P03)	0.767	0.459	-0.167
RPS3 (UniProt P23396)	0.354	0.207	-0.627
TAGLN (UniProt Q01995)	-0.0305	1.13	-1.55
SACS (UniProt Q9NZJ4)	-0.17	-0.0653	0.0609
DUSP3 (UniProt P51452)	0.504	0.265	-0.191
RAF1 (UniProt P04049)	-0.142	0.126	-0.0609
PDXK (UniProt O00764)	-0.427	-0.245	-0.829
MAPRE2 (UniProt Q15555)	-0.858	0.732	1.11
GLS (UniProt O94925)	-0.371	-0.00934	0.351
CCT6A (UniProt P40227)	0.06	-0.18	-0.174
RPS16 (UniProt P62249)	1.04	0.549	-0.329
DNAJA2 (UniProt O60884)	-0.922	-1.05	-0.26
MMGT1 (UniProt Q8N4V1)	0.584	0.397	0.966
CSE1L (UniProt P55060)	0.582	0.825	0.016
MPC2 (UniProt O95563)	0.0545	-0.501	1.64
TFCP2 (UniProt Q12800)	0.151	0.69	0.147
DERL2 (UniProt Q9GZP9)	-0.00701	-0.0318	0.0606
KCTD3 (UniProt Q9Y597)	0.366	0.263	-0.15
MKNK2 (UniProt Q9HBH9)	-0.569	0.232	0.192
MRI1 (UniProt Q9BV20)	0.156	0.0639	-0.37
PAGE1 (UniProt O75459)	0.147	0.51	-0.636

Target	thermal stability z-score (lipoamide; [1])	thermal stability z-score (lipoamide; arsenate co-treatment: none)	thermal stability z-score (potassium arsenate)
ZFAND6 (UniProt Q6FIF0)	0.56	0.219	-0.0508
UPP1 (UniProt Q16831)	-0.122	0.244	-0.16
A0A0C4DFX4|SRCAP	0.121	-0.226	-0.111
PLEKHA1 (UniProt Q9HB21)	-0.0949	-0.105	-0.185
MNAT1 (UniProt P51948)	-0.257	-0.423	0.102
PDZD8 (UniProt Q8NEN9)	-0.155	0.291	0.123
TLN2 (UniProt Q9Y4G6)	-1.57	-0.868	-0.69
OGFOD1 (UniProt Q8N543)	0.312	-0.342	1.04
GAB1 (UniProt Q13480)	-0.149	0.0158	-0.0474
TEX2 (UniProt Q8IWB9)	0.11	-0.0212	0.0716
PSMA3 (UniProt P25788)	0.613	0.719	0.398
BRD2 (UniProt P25440)	-0.0745	0.075	-0.153
FASTKD1 (UniProt Q53R41)	-0.195	-0.378	-0.324
BANF1 (UniProt O75531)	0.324	-0.358	-2.36
EEF1B2 (UniProt P24534)	0.748	0.472	0.849
ORC6 (UniProt Q9Y5N6)	-0.246	-0.0524	-1.11
RAD54B (UniProt Q9Y620)	-0.335	-0.346	-0.753
ZDHHC5 (UniProt Q9C0B5)	-0.762	0.0706	-0.438
PPP2R5C (UniProt Q13362)	1.38	0.649	-0.0211
LYRM4 (UniProt Q9HD34)	-0.401	0.0692	-0.348
CPSF2 (UniProt Q9P2I0)	-0.00974	-0.136	-0.339
ANKRD50 (UniProt Q9ULJ7)	-0.124	0.078	0.0328
MYO19 (UniProt Q96H55)	0.0427	0.347	-0.139
NDUFAF2 (UniProt Q8N183)	0.429	0.317	0.094
MCAT (UniProt Q8IVS2)	0.313	0.162	1.17
RIN1 (UniProt Q13671)	-0.105	-0.041	0.0874
OSBPL8 (UniProt Q9BZF1)	-1.47	-1.21	-0.00618

Reference: the supplement of paper PMC12463676, “Small-molecule dissolution of stress granules by redox modulation benefits ALS models” (Nature Chemical Biology, 2025)
